According to patent publication US6369093B1, “Pyrazole carboxanilide fungicide” (Bayer Aktiengesellschaft, priority 1998, dated 2002):

Legend:
[1] = tested on: Pyrenophora teres; assay: Pyrenophora teres test (barley)/protective; assay type: in vivo; details: barley plants, protective spray, application rate 250 g/ha, evaluation 7 days after inoculation
Description: [table] To produce a suitable preparation of active compound, 1 part by weight of active compound is mixed with the stated amounts of solvent and emulsifier, and the concentrate is diluted with water to the desired concentration. To test for protective activity, young plants are sprayed with the preparation of active compound at the stated application rate. After the spray coating has dried on, the plants are sprayed with a conidia suspension of Pyrenophora teres. The plants remain in an incubation cabin at 20° C. and 100% relative atmospheric humidity for 48 hours. The plants are then placed in a greenhouse at a temperature of about 20° C. and a relative atmospheric humidity of about 80%. Evaluation is carried out 7 days after the inoculation. 0% means an efficacy which corresponds to that of the control, whereas an efficacy of 100% means that no infection is observed.

[2] = tested on: Venturia inaequalis; assay: Venturia test (apple)/protective; assay type: in vivo; details: apple plants, protective spray, application rate 100 g/ha, evaluation 12 days after inoculation
Description: To produce a suitable preparation of active compound, 1 part by weight of active compound is mixed with the stated amounts of solvent and emulsifier, and the concentrate is diluted with water to the desired concentration.
To test for protective activity, young plants are sprayed with the preparation of active compound at the stated application rate. After the spray coating has dried on, the plants are inoculated with an aqueous conidia suspension of the causative organism of apple scab Venturia inaequalis and then remain in an incubation cabin at 20° C. and 100% relative atmospheric humidity for 1 day.
The plants are then placed in a greenhouse at about 21° C. and a relative atmospheric humidity of about 90%.
Evaluation is carried out 12 days after the inoculation. 0% means an efficacy which corresponds to that of the control, whereas an efficacy of 100% means that no infection is observed.

[3] = tested on: Podosphaera leucotricha; assay: Podosphaera test (apple)/protective; assay type: in vivo; details: apple plants, protective spray, application rate 100 g/ha, evaluation 10 days after inoculation
Description: (§1) [table] To produce a suitable preparation of active compound, 1 part by weight of active compound is mixed with the stated amounts of solvent and emulsifier, and the concentrate is diluted with water to the desired concentration. To test for protective activity, young plants are sprayed with the preparation of active compound at the stated application rate. After the spray coating has dried on, the plants are inoculated with an aqueous spore suspension of the causative organism of apple mildew Podosphaera leucotricha. The plants are then placed in a greenhouse at about 23° C. and a relative atmospheric humidity of about 70%. Evaluation is carried out 10 days after the inoculation. 0% means an efficacy which corresponds to that of the control, whereas an efficacy of 100% means that no infection is observed.

[4] = tested on: Erysiphe graminis f. sp. hordei; assay: Erysiphe test (barley)/protective; assay type: in vivo; details: barley plants, protective spray, application rate 750 g/ha, evaluation 7 days after inoculation
Description: Erysiphe test (barley)/protective [table] To produce a suitable preparation of active compound, 1 part by weight of active compound is mixed with the stated amounts of solvent and emulsifier, and the concentrate is diluted with water to the desired concentration. To test for protective activity, young cereal plants are sprayed with the preparation of active compound at the stated application rate. 1 day after the treatment, the plants are inoculated with spores of Erysiphe graminis f. sp. hordei. The plants are then placed in a greenhouse at 70% relative atmospheric humidity and a temperature of 18° C. Evaluation is carried out 7 days after the inoculation. 0% means an efficacy which corresponds to that of the control, whereas an efficacy of 100% means that no infection is observed.

[5] = tested on: Sphaerotheca fuliginea; assay: Sphaerotheca test (cucumber)/protective; assay type: in vivo; details: cucumber plants, protective spray, application rate 100 g/ha, evaluation 10 days after inoculation
Description: as §1, with “Afier” for “After”, “Sphaerotheca fuliginea.” for “the causative organism of apple mildew Podosphaera leucotricha.”, “placed” for “placed in a greenhouse”, “70% in a greenhouse.” for “70%.”

Row | melting point [°C] | SMILES | Efficacy in % [1] [%] | Efficacy in % [2] [%] | Efficacy in % [3] [%] | Efficacy in % [4] [%] | Efficacy in % [5] [%]
1 | 177 | Cc1cccc(NC(=O)c2c(C)nn(C)c2F)c1-c1ccc(Cl)cc1 [Example 17] | 100 |  |  | 100 | 
2 | 100 | Cc1ccccc1-c1ccccc1NC(=O)c1c(C)nn(C)c1F [Example 2] |  |  | 96 | 90 | 
3 | 144 | Cc1cccc(NC(=O)c2c(C)nn(C)c2F)c1-c1ccccc1 [Example 16] |  |  |  | 94 | 

Continued, compound first:

Row | SMILES | melting point [°C] | Efficacy in % [1] [%] | Efficacy in % [2] [%] | Efficacy in % [3] [%] | Efficacy in % [4] [%] | Efficacy in % [5] [%]
4 | Cc1ccc(-c2ccccc2NC(=O)c2c(C)nn(C)c2F)cc1Cl [Example 8] |  | 100 | 100 | 98 |  | 
5 | Cc1nn(C)c(F)c1C(=O)Nc1ccccc1-c1ccc(Br)cc1 [Example 1, N-[2-(4-bromophcnyl)]-1,3-dimethyl-5-fluoro-pyrazole-4-carboxanilide] | 127 | 100 | 100 | 100 | 100 | 95
6 | Cc1nn(C)c(F)c1C(=O)Nc1ccccc1-c1ccccc1F [Example 5] | 113 |  |  | 99 |  | 
7 | Cc1nn(C)c(F)c1C(=O)Nc1ccccc1-c1cccc(C(F)(F)F)c1 [Example 9] | 116 | 100 | 97 | 100 |  | 94
8 | Cc1nn(C)c(F)c1C(=O)Nc1ccccc1-c1ccccc1C(F)(F)F [Example 4] | 103 |  |  | 97 |  | 
